Patent US11980188B2, “Spiro cyclohexanedione derivates as herbicides” (SYNGENTA PARTICIPATIONS AG, priority 2018, dated 2024)

Tests used:
Experiment in all cases: Glasshouse herbicide test, pre- and post-emergence, percentage damage
Format in all cases: in vivo
Setaria faberi (SETFA) = settings: 250 g/h, evaluated after 13 days, percentage damage on five point scale; for SETFA POST: post-emergence; for SETFA PRE: pre-emergence
Method: (§1) Seeds of a variety of test species are sown in standard soil in pots (Lolium perenne (LOLPE), Setaria faberi (SETFA), Alopecurus myosuroides (ALOMY), Echinochloa crus-galli (ECHCG), Avena fatua (AVEFA)). After cultivation for one day (pre-emergence) or after 8 days cultivation (post-emergence) under controlled conditions in a glasshouse (at 24/16° C., day/night; 14 hours light; 65% humidity), the plants are sprayed with an aqueous spray solution derived from the formulation of the technical active ingredient in acetone/water (50:50) solution containing 0.5% Tween 20 (polyoxyethelyene sorbitan monolaurate, CAS RN 9005-64-5). Compounds are applied at […]. The test plants are then grown in a glasshouse under controlled conditions in a glasshouse (at 24/16° C., day/night; 14 hours light; 65% humidity) and watered twice daily. After 13 days for pre and post-emergence, the test is evaluated for the percentage damage caused to the plant. The biological activities are shown in the following table on a five point scale (5=80-100%; 4=60-79%; 3=40-59%; 2=20-39%; 1=0-19%).

Avena fatua (AVEFA) = settings: 250 g/h, evaluated after 13 days, percentage damage on five point scale; for AVEFA POST: post-emergence; for AVEFA PRE: pre-emergence
Method: as §1

[1] = system: Echinochloa crus-galli (ECHCG); settings: 250 g/h, evaluated after 13 days, percentage damage on five point scale; for ECHCG POST: post-emergence; for ECHCG PRE: pre-emergence
Method: as §1

[2] = system: Alopecurus myosuroides (ALOMY); settings: 250 g/h, evaluated after 13 days, percentage damage on five point scale; for ALOMY PRE: pre-emergence; for ALOMY POST: post-emergence
Method: as §1

Lolium perenne (LOLPE) = settings: 250 g/h, evaluated after 13 days, percentage damage on five point scale; for LOLPE POST: post-emergence; for LOLPE PRE: pre-emergence
Method: as §1

| Structure (SMILES) | SETFA POST (Setaria faberi (SETFA)) | SETFA PRE (Setaria faberi (SETFA)) | AVEFA POST (Avena fatua (AVEFA)) | AVEFA PRE (Avena fatua (AVEFA)) | ECHCG POST [1] | ECHCG PRE [1] | ALOMY PRE [2] | LOLPE POST (Lolium perenne (LOLPE)) | LOLPE PRE (Lolium perenne (LOLPE)) | ALOMY POST [2] |
| --- | --- | --- | --- | --- | --- | --- | --- | --- | --- | --- |
| COCC(=O)N1CCC2(CC1)CC(=O)C(c1c(C)cc(-c3ccc(F)cc3)cc1C)C(=O)C2 [Compound A56] | 5 (5=80-100%) | 5 (5=80-100%) | 5 (5=80-100%) | 5 (5=80-100%) | 5 (5=80-100%) | 5 (5=80-100%) | 5 (5=80-100%) | 5 (5=80-100%) | 5 (5=80-100%) | – |
| Cc1cc(-c2ncc(F)cn2)cc(C)c1C1C(=O)CC2(CCN(C(=O)C3CC3)CC2)CC1=O [Compound A38] | 5 (5=80-100%) | 5 (5=80-100%) | 5 (5=80-100%) | 5 (5=80-100%) | 5 (5=80-100%) | 5 (5=80-100%) | 5 (5=80-100%) | 5 (5=80-100%) | 5 (5=80-100%) | 5 (5=80-100%) |
| CC(=O)N1CCC2(CC1)CC(=O)C(c1c(C)cc(C)cc1C)C(=O)C2 [Compound A42] | 5 (5=80-100%) | 5 (5=80-100%) | 5 (5=80-100%) | 5 (5=80-100%) | 1 (1=0-19%) | 3 (3=40-59%) | 5 (5=80-100%) | 5 (5=80-100%) | 5 (5=80-100%) | 5 (5=80-100%) |
| Cc1cc(-c2ccc(F)cc2)cc(C)c1C1C(=O)CC2(CCN(C(=O)CC#N)CC2)CC1=O [Compound A63] | 5 (5=80-100%) | 5 (5=80-100%) | 5 (5=80-100%) | 5 (5=80-100%) | 4 (4=60-79%) | 5 (5=80-100%) | 5 (5=80-100%) | 5 (5=80-100%) | 5 (5=80-100%) | – |
| Cc1cc(-c2ncc(F)cn2)cc(C)c1C1C(=O)CC2(CCN(C(=O)C(F)F)CC2)CC1=O [Compound A39] | 5 (5=80-100%) | 5 (5=80-100%) | 5 (5=80-100%) | 5 (5=80-100%) | 5 (5=80-100%) | 5 (5=80-100%) | 5 (5=80-100%) | 5 (5=80-100%) | 5 (5=80-100%) | 5 (5=80-100%) |
| CON1CCC2(CC1)CC(=O)C(c1c(C)cc(-c3ccc(F)cc3)cc1C)C(=O)C2 [Compound A6] | 5 (5=80-100%) | 5 (5=80-100%) | 5 (5=80-100%) | 5 (5=80-100%) | 5 (5=80-100%) | 5 (5=80-100%) | 5 (5=80-100%) | 5 (5=80-100%) | 5 (5=80-100%) | 5 (5=80-100%) |
| Cc1cc(-c2ccc(C#N)cn2)cc(C)c1C1C(=O)CC2(CCN(C(=O)NC(=O)c3ccccn3)CC2)CC1=O [Compound A31] | 5 (5=80-100%) | 1 (1=0-19%) | 5 (5=80-100%) | – | 5 (5=80-100%) | 3 (3=40-59%) | 1 (1=0-19%) | 5 (5=80-100%) | 1 (1=0-19%) | 5 (5=80-100%) |
| CCS(=O)(=O)N1CCC2(CC1)CC(=O)C(c1c(C)cc(-c3ncc(F)cn3)cc1C)C(=O)C2 [Compound A32] | 5 (5=80-100%) | 5 (5=80-100%) | 5 (5=80-100%) | 5 (5=80-100%) | 5 (5=80-100%) | 5 (5=80-100%) | 5 (5=80-100%) | 5 (5=80-100%) | 5 (5=80-100%) | 5 (5=80-100%) |
| COc1cc(-c2ccc(F)cc2)cc(OC)c1C1C(=O)CC2(CCN(C(C)=O)CC2)CC1=O [Compound A20] | 5 (5=80-100%) | 5 (5=80-100%) | 5 (5=80-100%) | 5 (5=80-100%) | 5 (5=80-100%) | 5 (5=80-100%) | 5 (5=80-100%) | 5 (5=80-100%) | 5 (5=80-100%) | 5 (5=80-100%) |
| CC(=O)N1CCC2(CC1)CC(=O)C(c1c(C)cc(-c3ncc(F)cc3F)cc1C)C(=O)C2 [Compound A48] | 5 (5=80-100%) | 5 (5=80-100%) | 5 (5=80-100%) | 5 (5=80-100%) | 5 (5=80-100%) | 5 (5=80-100%) | 5 (5=80-100%) | 5 (5=80-100%) | 5 (5=80-100%) | 5 (5=80-100%) |
| COc1cc(-c2ccc(F)cc2)cc(C)c1C1C(=O)CC2(CCN(OC)CC2)CC1=O [Compound A9] | 5 (5=80-100%) | 5 (5=80-100%) | 5 (5=80-100%) | 5 (5=80-100%) | 5 (5=80-100%) | 5 (5=80-100%) | 5 (5=80-100%) | 5 (5=80-100%) | 5 (5=80-100%) | 5 (5=80-100%) |
| COc1cc(-c2ccc(F)cc2)cc(C)c1C1C(=O)CC2(CCN(C(=O)C(C)(C)C)CC2)CC1=O [Compound A72] | 5 (5=80-100%) | 5 (5=80-100%) | 5 (5=80-100%) | 1 (1=0-19%) | 5 (5=80-100%) | 5 (5=80-100%) | – | 5 (5=80-100%) | 5 (5=80-100%) | – |
| COc1cc(-c2ccc(F)cc2)cc(C)c1C1C(=O)CC2(CCN(C(=O)NC(=O)C(C)(C)C)CC2)CC1=O [Compound A69] | 5 (5=80-100%) | 5 (5=80-100%) | 5 (5=80-100%) | 2 (2=20-39%) | 5 (5=80-100%) | 5 (5=80-100%) | – | 5 (5=80-100%) | 4 (4=60-79%) | – |
| COc1cc(-c2ccc(F)cc2)cc(C)c1C1C(=O)CC2(CCN(C(=O)NC(C)(C)C)CC2)CC1=O [Compound A68] | 5 (5=80-100%) | 5 (5=80-100%) | 5 (5=80-100%) | 4 (4=60-79%) | 5 (5=80-100%) | 5 (5=80-100%) | – | 5 (5=80-100%) | 4 (4=60-79%) | – |
| COc1cc(-c2ccc(F)cc2)cc(C)c1C1C(=O)CC2(CCN(C(=O)C3CC3)CC2)CC1=O [Compound A70] | 5 (5=80-100%) | 5 (5=80-100%) | 5 (5=80-100%) | 5 (5=80-100%) | 5 (5=80-100%) | 5 (5=80-100%) | – | 5 (5=80-100%) | 5 (5=80-100%) | – |
